Source: PubChem BioAssay (NCI)
Where “and” joins values, the source holds several entries; their conditions need not be identical. Identical values can stand only once.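 Where inhibition never reached the appropriate level, the endpoint shown equals the highest concentration tested. Otherwise, values were interpolated linearly from a five-concentration, 48-hour dose response in 96-well plates. The concentration for 50% growth inhibition is given as GI50. TGI denotes the concentration required for complete inhibition of growth.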

What was measured:
Test in all cases: growth of human tumour cells (NCI), 48 h
[1] = system: CCRF-CEM leukemia
[2] = system: MDA-MB-435
[3] = system: SF-295 CNS
[4] = system: SK-MEL-2 melanoma
[5] = system: HCC-2998 colon
[6] = system: IGROV1 ovarian
[7] = system: CAKI-1 renal
[8] = system: COLO 205 colon
[9] = system: 786-0 renal
[10] = system: UACC-257 melanoma
[11] = system: NCI-H522 lung
[12] = system: SR leukemia
[13] = system: K-562 leukemia
[14] = system: SN12C renal
[15] = system: NCI-H226 lung
[16] = system: OVCAR-4 ovarian
[17] = system: SK-MEL-5 melanoma
[18] = system: NCI/ADR-RES ovarian
[19] = system: MOLT-4 leukemia
[20] = system: BT-549 breast
[21] = system: NCI-H460 lung
[22] = system: TK-10 renal
[23] = system: RXF 393 renal
[24] = system: EKVX NSCLC
[25] = system: SK-MEL-28 melanoma
[26] = system: HT29 colon
[27] = system: SNB-75 CNS
[28] = system: A498 renal
[29] = system: SF-539 CNS
[30] = system: HCT-15 colon
[31] = system: LOX IMVI melanoma
[32] = system: HL-60(TB) leukemia
[33] = system: MDA-MB-231 breast
[34] = system: OVCAR-8 ovarian
[35] = system: OVCAR-5 ovarian
[36] = system: M14 melanoma
[37] = system: ACHN renal
[38] = system: U251 CNS
[39] = system: PC-3 prostate
[40] = system: MALME-3M melanoma
[41] = system: HCT-116 colon
[42] = system: UO-31 renal
[43] = system: NCI-H23 lung
[44] = system: A549 NSCLC
[45] = system: UACC-62 melanoma
[46] = system: KM12 colon
[47] = system: HS 578T breast
[48] = system: HOP-92 NSCLC
[49] = system: SW-620 colon
[50] = system: T-47D breast
[51] = system: DU-145 prostate
[52] = system: SNB-19 CNS
[53] = system: OVCAR-3 ovarian
[54] = system: MDA-N
[55] = system: MCF7 breast
[56] = system: SF-268 CNS
[57] = system: HOP-62 NSCLC
[58] = system: SK-OV-3 ovarian
[59] = system: KM20L2 colon
[60] = system: DMS 114 small cell lung
[61] = system: DLD-1 colon
[62] = system: RPMI-8226 leukemia
[63] = system: M19-MEL melanoma
[64] = system: LXFL 529 NSCLC
[65] = system: XF 498 CNS
[66] = system: DMS 273 small cell lung

COC(=O)c1sc2c(Cl)c(Cl)sc2c1Cl
TGI [1]: > 100 µM | TGI [2]: > 100 µM | TGI [3]: > 100 µM | TGI [4]: > 100 µM | TGI [5]: > 100 µM | TGI [6]: > 100 µM | TGI [7]: > 100 µM | TGI [8]: > 100 µM | TGI [9]: > 100 µM | TGI [10]: > 100 µM | TGI [11]: > 100 µM | TGI [12]: > 100 µM | TGI [13]: > 100 µM | TGI [14]: > 100 µM | TGI [15]: > 100 µM | TGI [16]: > 100 µM | TGI [17]: > 100 µM | TGI [18]: > 100 µM | TGI [19]: > 100 µM | TGI [20]: > 100 µM | TGI [21]: > 100 µM | TGI [22]: 82 µM | TGI [23]: > 100 µM | TGI [24]: > 100 µM | TGI [25]: > 100 µM | TGI [26]: > 100 µM | TGI [27]: > 100 µM | TGI [28]: > 100 µM | TGI [29]: > 100 µM | TGI [30]: > 100 µM | TGI [31]: > 100 µM | TGI [32]: > 100 µM | TGI [33]: > 100 µM | TGI [34]: > 100 µM | TGI [35]: > 100 µM | TGI [36]: > 100 µM | TGI [37]: > 100 µM | TGI [38]: > 100 µM | TGI [39]: > 100 µM | TGI [40]: > 100 µM | TGI [41]: > 100 µM | TGI [42]: > 100 µM | TGI [43]: > 100 µM | TGI [44]: > 100 µM | TGI [45]: > 100 µM | TGI [46]: > 100 µM | TGI [47]: > 100 µM | TGI [48]: > 100 µM | TGI [49]: > 100 µM | TGI [50]: > 100 µM | TGI [51]: > 100 µM | TGI [52]: > 100 µM | TGI [53]: > 100 µM | TGI [54]: > 100 µM | TGI [55]: > 100 µM | TGI [56]: > 100 µM | TGI [57]: > 100 µM | TGI [58]: > 100 µM

COc1cc(CNc2nc3c(NC(C)=O)cc(C(F)(F)F)cc3nc2-c2ccccc2)cc(OC)c1OC
TGI [1]: > 100 µM | TGI [3]: > 100 µM | TGI [4]: > 100 µM | TGI [5]: > 100 µM | TGI [6]: > 100 µM | TGI [7]: > 100 µM | TGI [59]: > 100 µM | TGI [8]: > 100 µM | TGI [60]: > 100 µM | TGI [11]: > 100 µM | TGI [12]: > 100 µM | TGI [13]: > 100 µM | TGI [14]: > 100 µM | TGI [15]: > 100 µM | TGI [16]: > 100 µM | TGI [17]: > 100 µM | TGI [19]: > 100 µM | TGI [22]: > 100 µM | TGI [23]: > 100 µM | TGI [24]: > 100 µM | TGI [25]: > 100 µM | TGI [29]: > 100 µM | TGI [30]: > 100 µM | TGI [31]: > 100 µM | TGI [34]: > 100 µM | TGI [35]: > 100 µM | TGI [61]: > 100 µM | TGI [37]: > 100 µM | TGI [40]: > 100 µM | TGI [62]: > 100 µM | TGI [41]: > 100 µM | TGI [42]: > 100 µM | TGI [63]: > 100 µM | TGI [64]: > 100 µM | TGI [65]: > 100 µM | TGI [44]: > 100 µM | TGI [45]: > 100 µM | TGI [46]: > 100 µM | TGI [48]: > 100 µM | TGI [49]: > 100 µM | TGI [52]: > 100 µM | TGI [66]: > 100 µM | TGI [53]: > 100 µM | TGI [56]: > 100 µM | TGI [57]: > 100 µM | TGI [58]: > 100 µM

NCC1OC(OC2C(N)CC(N)C(O)C2OC2OC(CO)C(O)C2O)C(N)C(O)C1O (stereo unspecified)
TGI [1]: > 100 µM | TGI [2]: > 100 µM | TGI [3]: > 100 µM | TGI [4]: > 100 µM | TGI [5]: > 100 µM | TGI [6]: > 100 µM | TGI [7]: > 100 µM | GI50 [8]: > 100 µM | TGI [8]: > 100 µM | TGI [9]: > 100 µM | TGI [10]: > 100 µM | TGI [11]: > 100 µM | TGI [12]: > 50 µM | TGI [13]: > 100 µM | TGI [14]: > 100 µM | TGI [15]: > 100 µM | TGI [16]: > 100 µM | TGI [17]: > 100 µM | TGI [18]: > 100 µM | TGI [19]: > 100 µM | TGI [20]: > 100 µM | TGI [21]: > 100 µM | TGI [22]: > 100 µM | TGI [23]: > 50 µM | TGI [24]: > 100 µM | TGI [25]: > 100 µM | TGI [26]: > 100 µM | TGI [27]: > 100 µM | TGI [28]: > 100 µM | TGI [29]: > 100 µM | TGI [30]: > 100 µM | TGI [31]: > 100 µM | TGI [32]: > 100 µM | TGI [33]: > 100 µM | TGI [34]: > 100 µM | TGI [35]: > 100 µM | TGI [36]: > 100 µM | TGI [37]: > 100 µM | TGI [38]: > 100 µM | TGI [39]: > 100 µM | TGI [40]: > 100 µM | GI50 [62]: 48 µM and > 100 µM | TGI [62]: > 100 µM | GI50 [41]: > 100 µM | TGI [41]: > 100 µM | TGI [42]: > 100 µM | TGI [43]: > 100 µM | TGI [44]: > 100 µM | TGI [45]: > 100 µM | TGI [46]: > 100 µM | TGI [47]: > 100 µM | TGI [48]: > 100 µM | TGI [49]: > 100 µM | TGI [50]: > 100 µM | TGI [51]: > 100 µM | TGI [52]: > 100 µM | TGI [53]: > 100 µM | TGI [54]: > 100 µM | TGI [55]: > 100 µM | TGI [56]: > 100 µM | TGI [57]: > 50 µM | TGI [58]: > 100 µM
